{"source": "patent US5817652A", "about": "“Hypolipidaemic condensed 1,4-thiazepines” (Glaxo Wellcome Inc., priority 1993, dated 1998)", "tested_on": "rat distal ileal brush border membrane vesicles", "assay": "In vitro inhibition of bile acid uptake (sodium-dependent 3H taurocholate uptake)", "format": "biochemical", "details": "active (sodium-dependent) 3H taurocholate uptake, 30 seconds at 24° C., pH 7.4", "procedure": "In vitro inhibition of bile acid uptake\nFreshly prepared rat distal ileal brush border membrane vesicles (about […] vesicle protein) were incubated for 30 seconds at 24° C. in an incubation mixture comprising […] ^3 H taurocholate, 100 mM NaCl (or KCl) and 80 mM mannitol in 20 mM Herpes Tris pH 7.4. Each test compound was dissolved in ethanol (or water) and then diluted with incubation mixture to an ethanol concentration of not more than 1% v/v. The incubation was terminated by rapid dilution and filtration and the filter washed with an ice-cold isotonic sodium-free buffer.\nThe uptake of ^3 H taurocholate was measured by the radioactivity remaining on the filter and converted to pmoles/mg vesicle protein. The active, ie sodium-dependent, uptake was obtained by subtracting the passive uptake measured in 100 mM KCl from the total uptake measured in 100 mM NaCl. The active uptake for each test compound was compared with a control active uptake and the results expressed as % inhibition of bile acid uptake.", "note": "Where a name gives a salt, the structure may show the parent alone."}
{"smiles": "CCC(=O)CC1(CC)CS(=O)(=O)c2ccccc2C(c2ccccc2)N1", "note": "(mixture of isomers) [Example 4, (±)-trans-1-(3-ethyl-2,3,4,5-tetrahydro-5-phenyl-1,4-benzothiazepin-3-yl)-2-butanone S,S-dioxide]", "values": [{"measurement": "% inhibition of bile acid uptake", "setting": "0.3 μM compound", "value": 28, "unit": "%"}, {"measurement": "% inhibition of bile acid uptake", "setting": "1 μM compound", "value": 54, "unit": "%"}, {"measurement": "% inhibition of bile acid uptake", "setting": "3 μM compound", "value": 77, "unit": "%"}, {"measurement": "% inhibition of bile acid uptake", "setting": "10 μM compound", "value": 90, "unit": "%"}]}
{"smiles": "CCC(=O)CC1(CC)CS(=O)(=O)c2cc(OC)ccc2C(c2ccccc2)N1", "note": "(mixture of isomers) [Example 5, (±)-trans-1-(3-ethyl-2,3,4,5-tetrahydro-8-methoxy-5-phenyl-1,4-benzothiazepin-3-yl)-2-butanone S,S-dioxide hydrochloride 1,1 hydrate]", "values": [{"measurement": "% inhibition of bile acid uptake", "setting": "0.3 μM compound", "value": 60, "unit": "%"}, {"measurement": "% inhibition of bile acid uptake", "setting": "1 μM compound", "value": 83, "unit": "%"}, {"measurement": "% inhibition of bile acid uptake", "setting": "3 μM compound", "value": 94, "unit": "%"}, {"measurement": "% inhibition of bile acid uptake", "setting": "10 μM compound", "value": 98, "unit": "%"}]}
{"smiles": "CCC1(/C=C/C(C)=O)CS(=O)(=O)c2ccccc2C(c2ccccc2)N1", "note": "(mixture of isomers) [Example 10, (±)-trans-(E)-4-(3-ethyl-2,3,4,5-tetrahydro-5-phenyl-1,4-benzothiazepin-3-yl)-3-buten-2-one 1,1-dioxide]", "values": [{"measurement": "% inhibition of bile acid uptake", "setting": "10 μM compound", "value": 69, "unit": "%"}]}
{"smiles": "CCC(=O)CC1(CC)CS(=O)(=O)c2ccc(OC)cc2C(c2ccccc2)N1", "note": "(mixture of isomers) [Example 51, (±)-Trans-1-(3-Ethyl-2,3,4,5-tetrahydro-7-methoxy-5-phenyl-1,4-benzothiazepin-3-yl)-2-butanone S,S-dioxide hydrochloride]", "values": [{"measurement": "% inhibition of bile acid uptake", "setting": "0.3 μM compound", "value": 66, "unit": "%"}, {"measurement": "% inhibition of bile acid uptake", "setting": "1 μM compound", "value": 91, "unit": "%"}, {"measurement": "% inhibition of bile acid uptake", "setting": "3 μM compound", "value": 100, "unit": "%"}, {"measurement": "% inhibition of bile acid uptake", "setting": "10 μM compound", "value": 100, "unit": "%"}]}
{"smiles": "CCOCCC1(CC)CS(=O)(=O)c2ccccc2C(c2ccccc2)N1", "note": "(racemic) [Example 7, (±)-trans-3-(ethoxyethyl)-3-ethyl-2,3,4,5-tetrahydro-5-phenyl-1,4-benzothiazepine 1,1-dioxide hydrochloride hemihydrate]", "values": [{"measurement": "% inhibition of bile acid uptake", "setting": "10 μM compound", "value": 53, "unit": "%"}]}
{"smiles": "COc1ccc2c(c1)S(=O)(=O)CC1(CCCCC1)NC2c1ccccc1", "note": "(racemic) [Example 11, (±)-2,3,4,5-tetrahydro-8-methoxy-5-phenylspiro(1,4-benzothiazepine-3,1-cyclohexane) 1,1-dioxide]", "values": [{"measurement": "% inhibition of bile acid uptake", "setting": "0.3 μM compound", "value": 15, "unit": "%"}, {"measurement": "% inhibition of bile acid uptake", "setting": "1 μM compound", "value": 33, "unit": "%"}, {"measurement": "% inhibition of bile acid uptake", "setting": "3 μM compound", "value": 36, "unit": "%"}, {"measurement": "% inhibition of bile acid uptake", "setting": "10 μM compound", "value": 64, "unit": "%"}]}
{"smiles": "O=S1(=O)CC2(CCCCC2)NC(c2ccccc2)c2ccccc21", "note": "(racemic) [Example 20, (±)-2,3,4,5-Tetrahydro-5-phenylspiro(1,4-benzothiazepine-3,1'-cyclohexane) 1,1-dioxide]", "values": [{"measurement": "% inhibition of bile acid uptake", "setting": "10 μM compound", "value": 27, "unit": "%"}]}
